Results: patent US7879870B2, “Treatment of inflammatory and ulcerative diseases of the bowel with opioid antagonists” (priority 2006, dated 2011)
“Also recorded” adds a separate entry of the source.

Columns and labels:
beta-actin mRNA = test: Distal colon RNA of DSS mice, real-time RT-PCR; format: in vivo, mouse; settings: DSS+NTX
Excerpt: (§1) Total RNA was extracted from the distal colon samples (using TRIZOL® available from Invitrogen Corp., Carlsbad, Calif.; TRIZOL® is a trademark of Molecular Research Center, Inc. of Cincinnati, Ohio) and subjected to microarray analysis using a 10K mouse microarray (MWG Biotech, High Point, N.C.) and a Packard Biosciences ScanArray 4000KL machine (Functional Genomics Core Facility of the Section of Research Resources, Penn State College of Medicine). To minimize the impact of variation among animals, RNA from individual mice was pooled within each treatment group. […] RNA from Normal+saline, DSS+6.3 μg/kg NTX, and DSS+350 μg/kg NTX were each tested versus DSS+saline. Data were analyzed with GenSpring 6 software (Agilent Technologies, Palo Alto, Calif.).
(§2) RNA (18S and 28S bands) was visualized using the Agilent 2100 Bioanalyzer (Agilent Technologies, Santa Clara, Calif.) and concentrations were adjusted. First strand cDNA was then produced from 1.0 μg of total RNA using random hexamer primers and the SuperScript III Reverse Transcription kit (Invitrogen). The concentration and quality of resulting cDNA was quantified and analyzed using the Agilent 2100 Bioanalyzer or spectroscopically with the NanoDrop ND-1000 (NanoDrop Technologies, Wilmington, Del.). Samples were standardized to 30 ng/μL and 60 ng of cDNA per sample was then used as a template for real-time PCR using a SYBR Green Master Mix (Qiagen, Valencia, Calif.). 18S rRNA primers (Eurogentec, San Diego, Calif.) and the following gene-specific primer sequences obtained from PrimerBank (pga.mgh.harvard.edu/primerbank) were used: beta-actin, 6671509a; IL-5, 6754336a; IL-6, 13642311a; IL-12, 6680395a; STAT3, 13277852a; STAT4, 6755670a; Muc2, 3452503a2; TFF3, 6755773a1; Palladin, 9828173a1; and TGF-beta BP, 7305243a1. To exclude the possibility of genomic DNA contamination, control reactions with no cDNA template were also performed for each gene-specific primer set. PCR amplification and analysis were performed with the Applied Biosystems Sequence Detection System 7300 using the Relative Quantification (ddCt). Amplification data for the genes of interest were normalized to 18S within each individual reaction. Triplicate reactions were performed and the resultant data from multiple runs were averaged.

IL-5 mRNA = test: Distal colon RNA of DSS mice, real-time RT-PCR; format: in vivo, mouse; settings: DSS+NTX
Excerpt: as §1, §2

STAT3 mRNA = test: Distal colon RNA of DSS mice, real-time RT-PCR; format: in vivo, mouse
Excerpt: as §1, §2

IL-6 mRNA = test: Distal colon RNA of DSS mice, real-time RT-PCR; format: in vivo, mouse; settings: DSS mice treated with naltrexone
Excerpt: as §1, §2

STAT4 mRNA = test: Distal colon RNA of DSS mice, real-time RT-PCR; format: in vivo, mouse
Excerpt: as §1, §2

IL-12 mRNA = test: Distal colon RNA of DSS mice, real-time RT-PCR; format: in vivo, mouse; settings: DSS mice treated with naltrexone
Excerpt: as §1, §2

[1] = tested on: DSS-induced colitis in mice; test: DSS-induced colitis in mice: weight, food and water intake, modified DAI, colon length; format: in vivo, mouse
Excerpt: Six to eight-week-old male C57 black/6J mice (Charles River Laboratories, Inc., Wilmington, Mass.) were randomly allocated into one of two groups of 24 mice each. Food and water were provided ad libitum. The first group (Normal) received normal drinking water and the second group (DSS) received water containing 2% dextran sulfate sodium having a molecular weight of 40,000 (TdB Consultancy AB, Uppsala, Sweden) for six days followed by normal water for three additional days and necropsy on day 9 (FIG. 5A). Each mouse was housed in an individual cage for accurate measurement of food and water intake. Animal weight, water intake, and food consumption were measured daily. Bedding was changed and fresh stool pellets were collected daily and analyzed for occult blood. The colitis disease activity index (DAI) was calculated for each mouse according to the system established by Murthy and colleagues. See, Murthy, et al., “Treatment of dextran sulfate sodium-induced murine colitis by intracolonic cyclosporin,” Dig. Dis. Sci. 38, 1722-34 (1993). Overt changes in stool consistency were rarely discerned so a modified DAI was calculated based on percent weight loss and stool hemoccult or presence of gross bleeding.
(§3) Mice in each group (Normal or DSS) were randomly subdivided into three treatment groups of eight mice each. After 72 hours, mice were treated once daily for six consecutive days with a subcutaneous injection (0.1 mL) of one of the following: saline (control), 6.3 μg/kg naltrexone (“NTX”), or 350 μg/kg NTX (Sigma Chemicals, St. Louis, Mo.). On day 9, all animals were necropsied and their colons resected.
(§4) At necropsy, the entire colon was excised, measured in length, and bisected into proximal and distal portions. The proximal and distal colons were additionally divided for RNA extraction and histology. Each histology specimen was fixed in 10% neutral buffered formalin, paraffin embedded and sectioned for hematoxylin and eosin (“H&E”) staining. Specimens were examined microscopically and scored based upon the criteria established by Williams et al. by an investigator blinded to the treatment groups. Williams, et al., “Enhanced survival and mucosal repair after dextran sodium sulfate-induced colitis in transgenic mice that overexpress growth hormone,” Gastroenterology 120, 925-37 (2001). Briefly, a representative longitudinal section from each mouse was scored at six random fields for inflammation severity, extent of inflammation (mucosa, submucosa, transmural) and crypt damage. Each of these scores was weighted to reflect the percent involvement of the overall section and the weighted scores from each of the six fields were averaged to achieve an overall inflammation score for each mouse.
(§5) Results were calculated as mean±SEM. Statistical comparisons were performed between NTX treatment sub-groups and their corresponding saline control, as well as between the Normal and DSS groups, comparing corresponding treatments. Parametric analyses were performed (Minitab 13, State College, Pa.) using a modified Bonferroni method to correct for multiple comparisons to controls.

[2] = higher doses, i.e. 50 mg; cited from earlier work
[3] = tested on: mucin (Muc2), trefoil factor (TFF3), TGF-beta binding protein mRNA; test: Distal colon RNA of DSS mice, microarray and quantitative RT-PCR; format: in vivo, mouse
Excerpt: as §1
RNA (18S and 28S bands) was visualized using the Agilent 2100 Bioanalyzer (Agilent Technologies, Santa Clara, Calif.) and concentrations were adjusted. […] The concentration and quality of resulting cDNA was quantified and analyzed using the Agilent 2100 Bioanalyzer or spectroscopically with the NanoDrop ND-1000 (NanoDrop Technologies, Wilmington, Del.). […] PCR amplification and analysis were performed with the Applied Biosystems Sequence Detection System 7300 using the Relative Quantification (ddCt). […]

[4] = tested on: DSS-induced colitis in mice; test: DSS-induced colitis in mice: histological inflammation score of distal colon (H&E); format: in vivo, mouse
Experimental: as §3, §4, §5

[5] = DSS mice treated with naltrexone

O=C1CC[C@@]2(O)[C@H]3Cc4ccc(O)c5c4[C@@]2(CCN3CC2CC2)[C@H]1O5 [naltrexone]
Expression of beta-actin (beta-actin mRNA): not significantly changed
Expression of IL-5 (IL-5 mRNA): not significantly changed
STAT3 mRNA level versus colitis-free Normal controls (STAT3 mRNA; [5]): statistically indistinguishable from colitis-free, Normal controls
STAT3 mRNA level, decrease after naltrexone treatment (STAT3 mRNA; DSS mice, DSS+saline increased 2.20-fold): greater than 50%
DSS-induced up-regulation of STAT3 expression (in words) (STAT3 mRNA; DSS-treated mice): reversed
IL-6 mRNA level versus colitis-free mice (IL-6 mRNA): decreased to levels near or equal to that in mice without colitis; also recorded: not completely restored to those seen in the colitis-free animals
IL-6 mRNA level versus DSS+saline (IL-6 mRNA; DSS+saline increased 73-fold): greatly reduced
STAT4 mRNA level versus Normal mice (STAT4 mRNA; [5]): still slightly higher than in the Normal mice
STAT4 mRNA level, decrease after naltrexone treatment (STAT4 mRNA; DSS mice, DSS+saline increased 8.03-fold): greater than 50%
DSS-induced up-regulation of STAT4 expression (in words) (STAT4 mRNA; DSS-treated mice): reversed
IL-12 mRNA level versus colitis-free mice (IL-12 mRNA): decreased to levels near or equal to that in mice without colitis; also recorded: restored mRNA expression to that seen in the colitis-free, Normal mice
IL-12 mRNA level versus DSS+saline (IL-12 mRNA; DSS+saline increased three-fold): greatly reduced
Colon length ([1]; DSS mice treated with naltrexone, still shorter than in untreated animals): more normal colon lengths
DAI scores / disease symptoms compared to DSS+saline (in words) ([1]; DSS mice, 350 μg/kg): lower DAI scores; also recorded: decreased
Weight loss compared to DSS mice treated with saline ([1]; DSS mice, 350 μg/kg): less weight loss; also recorded: decreased
Weight loss compared to DSS+saline ([1]; DSS mice, naltrexone s.c. once daily from 72 hours): tended to be less
DAI scores of DSS mice (in words) ([1]; DSS mice, naltrexone treatment): A reduction in these DAI scores was evident
Weight loss compared to DSS+saline, statistical significance ([1]; DSS+6.3 μg/kg NTX, p=0.02): only reached statistical significance on day 6
Modified DAI scores ([1]; Normal mice (no DSS), NTX-treated): no evidence of colitis
DAI scores lower than DSS+saline mice ([1]; day 6, DSS+350 μg/kg NTX, p=0.015): 55%
Weight at necropsy among the three DSS sub-groups ([1]; day 9, off DSS for three days): no significant difference in weight
Food consumption ([1]; naltrexone treatment alone (Normal mice, no DSS)): no effect on food consumption
Liver transaminases [2]: elevate liver transaminases
Levels of Muc2, TFF3 and TGF-beta binding protein mRNAs, microarray ([3]; DSS animals, either 6.3 or 350 μg/kg): restored the levels of these mRNAs in DSS animals to varying extents
Levels of Muc2, TFF3 and TGF-beta binding protein mRNAs, quantitative RT-PCR, versus Normal animals ([3]; DSS+NTX animals): not significantly different from Normal animals
Inflammation by histology compared to DSS+saline (in words) ([4]; DSS mice, 350 μg/kg): less inflammation; also recorded: improved
Crypt architecture and invading leukocytes compared to DSS+saline ([4]; DSS+350 μg/kg NTX): improved crypt architecture and fewer invading leukocytes
Inflammation scores of distal colon compared to DSS+saline ([4]; DSS+NTX 6.3 and 350 μg/kg, trend did not reach statistical significance): dose-dependent decrease in inflammation and damage
Colonic inflammation, histology, Normal+saline versus Normal+NTX ([4]; Normal mice (no DSS)): No differences in colonic inflammation
Mucosal integrity of the colon ([4]; naltrexone alone (no DSS)): did not alter the mucosal integrity of the colon
